A short description of series [1]: Metabolic stability in human kidney S9. The series is classed as in vitro ADME. Conditions: human, s9. How it is done: The metabolic stability of the compounds in human kidney was evaluated to determine whether the drugs would be degraded by metabolic enzymes in the kidney to affect the efficacies and pharmacokinetics. 1. Relevant solutions were formulated. 2. a) With cofactors (NADPH & UDPGA): NADPH and UDPGA were added during the incubation. […] H2O was added into the culture solution. The final concentration of KS9 Fractions was 1 mg/mL. The mixture was pre-heated at 37° C. for 10 min. […] In this study, 7-hydroxy-coumarin and Raloxifene were used as the positive control. The final concentration of the positive control compounds was 0.2 μM, and the final concentration of the test compound was 1 μM. The culture solution was incubated in water bath at 37° C. 4. At 0.5, 5, 15, 30 and 60 min, volume aliquots were taken from the reaction solution and the reaction was stopped by adding acetonitrile. The samples were centrifuged for 30 min. The supernatant was taken and mixed with ultrapure water for subsequent LC-MS/MS analysis. 5. Data analysis: All calculation was conducted using Microsoft Excel. Peak areas were determined and slope values were calculated based on the extracted ion chromatograms.

Series [2] can be described thus: Pharmacokinetic properties in Cynomolgus macaques. Particulars: cynomolgus monkey, in vivo, male cynomolgus macaques, plasma. Here is the method: To test the pharmacokinetic profiles of the compounds in Cynomolgus macaques.
Non-juvenile male cynomolgus macaques were used for experiment, 3 cynomolgus macaques for each compound. Whole blood was collected at time points of 1 h, 2 h, 4 h, 8 h, 16 h, 24 h, 48 h, 72 h, 120 h, 168 h and 240 h after administration, to prepare plasma. The drug concentration was analyzed by LC-MS/MS method, and the pharmacokinetic parameters were calculated using Phoenix WinNonlin software.

What is called microsomal CLint is a measure of how fast metabolising enzymes remove a compound, apart from limits set by blood flow. Lower therefore signals greater metabolic stability. In series [1], `O=C(c1ccc(OCCN2CCCCC2)cc1)c1c(-c2ccc(O)cc2)sc2cc(O)ccc12` [Raloxifene, reference compound] returned a half-life at 0.2 μM of 1.56 h and a microsomal CLint at 0.2 μM of 7.77 µL/min/mg.

In series [1], `O=c1ccc2ccc(O)cc2o1` [7-Hydroxy-courmarin, 7-hydroxy-coumarin, reference compound] came in with a half-life at 0.2 μM of 1.69 h and an intrinsic metabolic clearance (microsomal CLint) at 0.2 μM of 6.84 µL/min/mg.

Usually Cmax stands for the peak of the concentration-time curve. What is called Tmax is the time from dosing to the highest level. Consider `CC[C@H](C)[C@H](NC(=O)[C@H](Cc1ccccc1)NC(=O)[C@@H]1CCCCNC(=O)CN(C(=O)COCCOCCNC(=O)CC[C@H](NC(=O)CCCCCCCCCCCCCCCCCCC(=O)O)C(=O)O)CC(=O)NCCCC[C@H](NC(=O)[C@H](CCCCN)NC(=O)[C@H](CC(=O)O)NC(=O)[C@H](CC(C)C)NC(=O)[C@](C)(CC(C)C)NC(=O)[C@@H](NC(=O)[C@H](CO)NC(=O)[C@H](Cc2ccc(O)cc2)NC(=O)[C@H](CC(=O)O)NC(=O)[C@H](CO)NC(=O)[C@@H](NC(=O)[C@H](Cc2ccccc2)NC(=O)[C@@H](NC(=O)CNC(=O)[C@H](CCC(N)=O)NC(=O)C(C)(C)NC(=O)[C@@H](N)Cc2ccc(O)cc2)[C@@H](C)O)[C@@H](C)O)[C@@H](C)CC)C(=O)N[C@@H](C)C(=O)N[C@@H](CCC(N)=O)C(=O)NC(C)(C)C(=O)N1)C(=O)N[C@@H](CCC(=O)O)C(=O)N[C@@H](Cc1ccccc1)C(=O)N[C@@H](CC(C)C)C(=O)N[C@@H](CC(C)C)C(=O)N[C@@H](CCC(=O)O)C(=O)NCC(=O)NCC(=O)N1CCC[C@H]1C(=O)N[C@@H](CO)C(=O)N[C@@H](CO)C(=O)NCC(=O)N[C@@H](C)C(=O)N1CCC[C@H]1C(=O)N1CCC[C@H]1C(=O)N1CCC[C@H]1C(=O)N[C@@H](CO)C(N)=O` [Example 9, YAibQGT FTSDY SIα- MeLLD K^1KAQAib ^1KFIEF LLEGG PSSGA PPPS-NH2 (SEQ ID NO: 15)], for which, in series [2] (read-out: AUC0-240 h), the AUC(0-t) is 3.23 µM·h. The AUC(0-inf) in series [2] (read-out: AUCINF) stood at 3.64 µM·h. Further, in series [2] (read-out: Cmax), the maximum concentration (Cmax) worked out at 30.1 nM. Besides, the half-life in series [2] (read-out: T1/2 (converted)) is 77.4 h. Moreover, the time of peak concentration (Tmax) in series [2] (read-out: Tmax) was determined as 29.3 h.

Consider `CC[C@H](C)[C@@H]1NC(=O)[C@H](Cc2ccccc2)NC(=O)[C@H](C)NC(=O)C(C)(C)NC(=O)[C@H](CCC(N)=O)NC(=O)[C@H](C)NC(=O)[C@@H](NC(=O)[C@H](CCCCN)NC(=O)[C@H](CC(=O)O)NC(=O)[C@H](CC(C)C)NC(=O)[C@](C)(CC(C)C)NC(=O)[C@@H](NC(=O)[C@H](CO)NC(=O)[C@H](Cc2ccc(O)cc2)NC(=O)[C@H](CC(=O)O)NC(=O)[C@H](CO)NC(=O)[C@@H](NC(=O)[C@H](Cc2ccccc2)NC(=O)[C@@H](NC(=O)CNC(=O)[C@H](CCC(N)=O)NC(=O)C(C)(C)NC(=O)[C@@H](N)Cc2ccc(O)cc2)[C@@H](C)O)[C@@H](C)O)[C@@H](C)CC)CCCCNC(=O)CN(C(=O)COCCOCCNC(=O)COCCOCCNC(=O)CC[C@H](NC(=O)CCCCCCCCCCCCCCCCCCC(=O)O)C(=O)O)CC(=O)NCCCC[C@@H](C(=O)N[C@@H](Cc2ccc(O)cc2)C(=O)N[C@@H](CC(C)C)C(=O)N[C@@H](CC(C)C)C(=O)N[C@@H](CCC(=O)O)C(=O)NCC(=O)NCC(=O)N2CCC[C@H]2C(=O)N[C@@H](CO)C(=O)N[C@@H](CO)C(=O)NCC(=O)N[C@@H](C)C(=O)N2CCC[C@H]2C(=O)N2CCC[C@H]2C(=O)N2CCC[C@H]2C(=O)N[C@@H](CO)C(N)=O)NC1=O` [Example 11, YAibQGT FTSDY SIα- MeLLD K^1KAQAib AFI^1KY LLEGG PSSGA PPPS-NH2 (SEQ ID NO: 17)], for which, in series [1], the half-life at 1 μM is > 3.08 h and the microsomal CLint at 1 μM is < 3.75 µL/min/mg.

These data come from patent US20260234211A1, “POLYPEPTIDE HAVING MODIFIED STRUCTURE AND USE THEREOF” (Guangdong Raynovent Biotech Co., Ltd., priority 2023, published 2026).
